In assay [1] the test system is advanced glycation end products (AGEs) formation. Nature of the assay: Bovine serum albumin-methylglyoxal assay on AGEs formation. The format is biochemical. The settings on record: BSA 50 mg/mL + methylglyoxal 100 mM, 37°C, 24 h; mean ± SEM. The protocol:
Bovine serum albumin (50 mg/mL) was incubated with methylglyoxal (100 mM) in sodium phosphate buffer (0.1 M, pH 7.4) in the presence of various concentrations of the compounds (including a control) at 37°C for 24 h. Then the fluorescent intensity was measured at an excitation wavelength of 355 nm and an emission wavelength of 460 nm with a luminescence spectrometer LS50B (Perkin-Elmer Ltd., Buckinghamshire, England). […] All reagents and samples were sterilized by filtration through […] membrane filters.

The target of assay [2] is T1, rat lens aldose reductase (RLAR) (Rattus norvegicus, UniProt P07943).
T1 construct: the supernatant was collected and used as the RLAR; from tissue; host or cells: lens of Sprague-Dawley rats (crude homogenate supernatant)
The assay is described as follows: In vitro determination of RLAR inhibition (NADPH decrease at 340 nm, DL-glyceraldehyde substrate). The settings on record: crude RLAR from Sprague-Dawley rat lenses; mean ± SEM, three independent experiments in duplicate. The format is biochemical. How it is done: Crude RLAR was prepared as follows: lenses […] were removed from Sprague-Dawley rats and frozen at −70°C until use. Noncataractous transparent lenses were pooled and a homogenate was prepared in 0.1 M phosphate buffer saline (pH 6.2). RLAR homogenate was then centrifuged at 9600 ×g for 20 min. After centrifugation in a refrigerated centrifuge, the supernatant was collected and used as the RLAR. All procedures were carried out at 4°C [10].
RLAR activity was assayed spectrophotometrically by measuring the decrease in the absorption of NADPH at 340 nm over a 4 min period using DL-glyceraldehyde as the substrate. Each 1.0 mL cuvette contained equal units of the enzyme, 0.1 M sodium phosphate buffer (pH 6.2), 0.3 mM NADPH, with or without 10 mM of the substrate, and an inhibitor [11].

Assay [3] in a line: DPPH radical scavenging assay. The settings on record: for IC50: 15 min incubation in the dark, mean ± SEM; for inhibitory effect on DPPH (in words): at the same concentration when compared to other compounds. How it is done: The stable free radical, DPPH, was used to determine the free radical scavenging activity of the SHL extracts. Briefly, a 0.32 mM solution of DPPH in methanol was prepared, and then 180 µl of this solution was mixed with 30 µl of each sample (1.0 to 5.0 mg/mL in methanol). After 15 min of incubation in the dark, the decrease in the absorbance of the solution was measured at 570 nm on a microplate reader (EL800 Universal Microplate reader, Bio-Tek instruments, Winooski, VT, USA).

As for `N=C(N)NN` [Aminoguanidine, aminoguanidine, reference compound], in assay [1], the IC50 is 820 ± 79.4 µM and the “IC50 AGEs” value stood at 90.70 ± 8.71 µg/mL.
Take `O=C(O)CCc1ccc(O)c(O)c1` [Compound 1, 3-(3,4-dihydroxyphenyl)-propionic acid]: the IC50 was greater than 1000 µM in assay [2], 184 ± 17.6 µM in assay [1] and 110 ± 9.39 µM in assay [3].
As for `O=C(/C=C/c1ccc(O)c(O)c1)O[C@@H]1C[C@](O)(C(=O)O)C[C@@H](O)[C@H]1O` [Compound 2, chlorogenic acid], the figures for the IC50 in assay [2] and in assay [1] were 8.35 ± 0.45 µM and greater than 1000 µM, respectively.
`O=C(/C=C/c1ccc(O)c(O)c1)OC[C@H]1O[C@@H](OCCc2ccc(O)c(O)c2)[C@H](O)[C@@H](O)[C@@H]1O` [Compound 4, calceolarioside B]: the figures for the half-maximal inhibitory concentration (IC50) in assay [2], in assay [1] and in assay [3] were 24 ± 2.3 µM, greater than 1000 µM and 94.6 ± 6.86 µM, respectively.
The like results for `O=c1cc(-c2ccc(O)c(O[C@@H]3O[C@H](CO)[C@@H](O)[C@H](O)[C@H]3O)c2)oc2cc(O)cc(O)c12` [Compound 5, luteolin-3′-O-β-D-glucopyranoside] were, in that order, 7.34 ± 0.35 µM, 118 ± 11.5 µM and 96.3 ± 9.19 µM.
The like results for `O=c1c(O[C@@H]2O[C@H](CO)[C@@H](O)[C@H](O)[C@H]2O)c(-c2ccc(O)c(O)c2)oc2cc(O)cc(O)c12` [Compound 6, quercetin-3-O-β-D-glucopyranoside] were, in that order, 10.4 ± 1.38 µM, greater than 1000 µM and 122 ± 10.9 µM.
In the case of `O=c1cc(-c2ccc(O)c(O)c2)oc2cc(O[C@@H]3O[C@H](CO)[C@@H](O)[C@H](O)[C@H]3O)cc(O)c12` [Compound 7, luteolin-7-O-β-D-glucopyranoside], the IC50 in assay [2] was 16.1 ± 1.2 µM; in assay [1] it was greater than 1000 µM; in assay [3], greater than 1000 µM. In assay [3], the “inhibitory effect on DPPH (in words)” value is “no an inhibitory effect”.
Turning to `O=C1O[C@H]([C@@H](O)CO)C(O)=C1O` [L-ascorbic acid, reference compound], the IC50 in assay [3] came to 54.4 ± 5.73 µM.
`O=c1cc(-c2ccc(O)c(O[C@@H]3O[C@H](CO)[C@@H](O)[C@H](O)[C@H]3O)c2)oc2cc(O)cc(O)c12` [luteolin-3′-O-β-D-glucopyranoside] registered an IC50 in assay [2] of 7.34 to 24 µM.
Same read-out and setting: the result for `O=c1cc(-c2ccc(O)c(O)c2)oc2cc(O[C@@H]3O[C@H](CO)[C@@H](O)[C@H](O)[C@H]3O)cc(O)c12` [luteolin-7-O-β-D-glucopyranoside] reads 7.34 to 24 µM; that for `O=c1c(O[C@@H]2O[C@H](CO)[C@@H](O)[C@H](O)[C@H]2O)c(-c2ccc(O)c(O)c2)oc2cc(O)cc(O)c12` [quercetin-3-O-β-D-glucopyranoside], 7.34 to 24 µM.
As to neochlorogenic acid [Compound 3], the values for the IC50 in assay [2], in assay [1] and in assay [3] were 72 ± 25.8 µM, 115 ± 10.5 µM and greater than 1000 µM, respectively. Also, the “inhibitory effect on DPPH (in words)” value in assay [3] is “no an inhibitory effect”.

Values taken from paper PMC5343222, “Inhibitory Activities of Stauntonia hexaphylla Leaf Constituents on Rat Lens Aldose Reductase and Formation of Advanced Glycation End Products and Antioxidant” (BioMed Research International, 2017).
